Results on 63 compounds are retold here after a melting point compilation (Tetko et al.; mined from patent text by program, amines drawn as free bases though some values may be those of a salt).

One may read the melting point as the temperature of the solid-liquid transition. The compound `CCCn1nc2c(N)nc3ccccc3c2c1CC` came in with a melting point of 219 to 220 °C.

With `O=C(CN1C(=O)C2(COc3cc4c(cc32)OCCO4)c2ccccc21)Nc1ccccc1F` (stereo not drawn), the melting point is 117 to 119 °C.

`O=C(N[C@@H](Cc1ccc(Cl)cc1)C(=O)N1CCC(O)CC1)c1cc2cc(Cl)ccc2[nH]1` came in with a melting point of 227 to 229 °C.

As to `CC(C)(Oc1ccc(CCC(=O)c2ccc(-c3ccc(OC(F)(F)F)cc3)s2)c(Cl)c1Cl)C(=O)O`, the melting point lay within 135 to 136 °C.

As for `CC(C)(C)c1cc2sccc2c(C(C)(C)C)c1O`, the melting point was 107 °C.

In turn, `CCOc1csc2c(O)c(SC)cnc12` displayed a melting point of 180 to 183 °C.

In turn, `CNc1cc(Oc2ccc3c(c2)OCCN3C(=O)Nc2ccc(C)c(C(F)(F)F)c2)ncn1` had a melting point of 180 to 182 °C.

Turning to `CCCc1c(OCCCCCc2c(O)c(O)c(Cl)c(Cl)c2Cl)ccc(C(=O)O)c1O`, the melting point fell in the range of 193 to 196 °C.

As to `O=[N+]([O-])c1ccc(-c2ccc(-c3ccc([N+](=O)[O-])cc3OCc3ccccc3)o2)c(OCc2ccccc2)c1`, the melting point fell in the range of 233 to 237 °C.

`O=Cc1c(OCCCCCCC(=O)N(Cc2ccccc2)Cc2ccccc2)cc(Cl)cc1[N+](=O)[O-]` yielded a melting point of 76 to 77 °C.

Consider `CN1C(=O)C2(C(=O)N(Cc3ccccn3)c3ccccc32)c2cc3c(cc21)OCCO3` (stereo not drawn), for which the melting point fell in the range of 87 to 89 °C.

Compound `O=C(NCc1ncccn1)c1cnc(N2CCC[C@H]2CO)nc1NCc1cccc(Cl)c1` displayed a melting point of 153 to 156 °C.

The compound `N#Cc1cn(-c2ccc(C(F)(F)F)cc2)c(=O)n(SC(Cl)(Cl)Cl)c1=O` returned a melting point of 167 to 168 °C.

Take `Cn1cc(Br)cc(Nc2cc(C3CC3)n[nH]2)c1=O`: the melting point was 203 to 204 °C.

In turn, `Cc1cc(Cl)cc(C(=O)NCC2CCO2)c1NC(=O)c1cc(Br)nn1-c1ncccc1Cl` (stereo not drawn) came in with a melting point of 95 to 97 °C.

`O=C(CCCN1CCN(c2ccccn2)CC1)c1cccnc1` came in with a melting point of 89 °C.

`COC(=O)COC(=O)COc1ccc([N+](=O)[O-])cc1` had a melting point of 88 to 90 °C.

Consider `CCOC(=O)CCc1cc(F)c(N2CCNCC2)nc1Nc1ccc(F)cc1F`, for which the melting point was 121 to 123 °C.

The compound `CC1(C)COc2ccc(Cl)cc2C(O)(c2ccccn2)C1` (stereo not drawn) displayed a melting point of 118 °C.

Take `CC(C)(Oc1ccc(C#N)cc1)C(O)Cc1ccncn1` (stereo not drawn): the melting point was 96 to 98 °C.

In turn, `CN(C)S(=O)(=O)c1ccc(O)c(O)c1` had a melting point of 142 °C.

Regarding `NC(=S)Nc1c(Br)cccc1Br`, the melting point is 186 to 189 °C.

Compound `Cc1cc2ncccc2c(=O)[nH]1` displayed a melting point of 244 to 245 °C.

Consider `CNC(N)=C(CCSCc1csc(CN(C)C)n1)[N+](=O)[O-]`, for which the melting point is 130 to 132 °C.

For `COC(=O)Nc1cc(Oc2ccc3c(C(=O)Nc4cccc(C(F)(F)F)c4)cccc3c2)ccn1`, the melting point was 230 to 232 °C.

For the compound `Nc1nc2c(ncn2COCC(COC(=O)COc2ccccc2)OC(=O)COc2ccccc2)c(=O)[nH]1` (stereo not drawn), the melting point lay within 95 to 100 °C.

In the case of `CC(C)(C)OC(=O)NC(Cc1ccccc1)C(O)CNCC(O)C(Cc1ccccc1)NC(=O)C1c2ccccc2CN1C=O` (stereo not drawn), the melting point lay in the range of 174 to 176 °C.

Turning to `COc1ccc2c(Cl)nncc2c1`, the melting point was 181 to 183 °C.

Take `N=C(NO)c1ccc(OCCCOc2c(Cl)cc(OCC=C(Cl)Cl)cc2Cl)cc1`: the melting point is 144 to 146 °C.

`COC(=O)c1cccc(C2=NC(C)(C)Cc3cc(OC)c4c(c32)CC(C)(C)O4)c1` displayed a melting point of 137 to 138 °C.

For the compound `CC(=O)OC1CC(C)(C)N(OC(=NC2CCCCC2)N(C(=O)c2ccccc2)C2CCCCC2)C(C)(C)C1`, the melting point lay within 147 to 152 °C.

The compound `CC(C)(C)C(O)c1ccc(C2(c3ccccc3)OCCO2)cc1` (stereo not drawn) gave a melting point of 90 to 93 °C.

In turn, `CS(=O)(=O)c1ccc(Oc2ccc(Cc3ccccc3)cc2)cc1` displayed a melting point of 109 to 110 °C.

Turning to `O=C(CN1CCN(C(c2ccc(F)cc2)c2ccc(F)cc2)CC1)Nc1cccc2ccccc12`, the melting point was 173 °C.

`Cc1nc(NC(=N)N)sc1C(=O)Nc1cccc(OCC(=O)OC(C)(C)C)c1` gave a melting point of 204 °C.

In the case of `Cc1ccc2nc(-c3ccc4oc(=O)n(C)c4c3)c(C)n2c1`, the melting point was in the range of 247 to 249 °C.

For `COc1ccc(-c2ccc(Cl)nn2)cc1Br`, the melting point is 226 to 228 °C.

In turn, `Cn1ncc2ccccc2c1=O` returned a melting point of 111 to 112 °C.

With `COC(=O)COc1cccc2c(O)cccc12`, the melting point lay in the range of 177 to 179 °C.

Turning to `CCC1(CC)CN(C(C)(C)C)C(=O)C(CC)(CC)N1OC(=O)C(C)(C)C`, the melting point was 58 to 60 °C.

For the compound `CCCCCCCCCCNC(=S)Nc1ccc(NNC=O)cc1`, the melting point lay in the range of 150 to 152 °C.

Turning to `COc1ccc(Oc2nc(Nc3cccc(C(=O)O)c3)nc(Oc3ccc(C=O)cc3OC)n2)cc1`, the melting point is 180 to 182 °C.

Regarding `CCC1(C)CC(=O)C(C(=O)Nc2cccc(C(F)(F)F)c2)C(=O)C1` (stereo not drawn), the melting point fell in the range of 81 to 82 °C.

Turning to `CC1(c2ccccc2)Cc2cc(OCCO)c(Cl)c(Cl)c2C1=O` (stereo not drawn), the melting point was 188 to 190 °C.

The compound `Cc1sc(C(=O)O)c(SC(C)C)c1Br` displayed a melting point of 132 to 134 °C.

Regarding `O=Cc1ccc(OC2CCCC2)c(O)c1`, the melting point is 87 to 89 °C.

Consider `O=C(O)Cc1cn(-c2ccccc2)nc1OCc1ccccc1`, for which the melting point is 105 to 106 °C.

Compound `O=C(O)c1ccccc1Oc1ccc(Cl)cn1` returned a melting point of 159 °C.

In turn, `O=C(NO)c1ccc2c(c1)CN(C(=O)c1ccc3ccccc3n1)C2` came in with a melting point of 162 to 166 °C.

`COc1ccc(Cl)nc1C(N)=O` had a melting point of 223 to 224 °C.

`CCCCc1nc2ccccc2n1-c1ccc(O)cc1` returned a melting point of 192 to 194 °C.

`COc1ccc(N(CCCC(=O)O)C(=O)CCN(C(C)=O)c2c(C)cccc2C)cc1` gave a melting point of 90 to 92 °C.

Compound `CC(C)NC(=O)c1c(NC(=O)c2cc(C(F)(F)F)nn2-c2ncccc2Cl)ccc2cccnc12` displayed a melting point of 225 to 226 °C.

For the compound `COC(=O)c1ccc(NN=CC(F)(F)F)cc1S(=O)(=O)NC(=O)Nc1nc(OC)cc(OC)n1`, the melting point is 201 to 202 °C.

In turn, `CC1(C)COc2ccc(C[C@@H](NC(=O)c3ccc(F)c4ccccc34)[C@@H](O)c3cccc(Cl)c3)cc21` (racemic) returned a melting point of 131 to 133 °C.

`Cc1ccc(C(=O)Oc2ccc3c(OC(=O)c4ccc(C)c(O)c4)c4ccccc4cc3c2OC(=O)c2ccc(C)c(O)c2)cc1O` displayed a melting point of 251 °C.

The compound `CC(=O)S[C@H]1NC(=O)[C@H]1NC(=O)Cc1ccccc1` showed a melting point of 110 to 111 °C.

The compound `Cn1c(OC(F)F)n[nH]c1=O` yielded a melting point of 111 °C.

Take `COc1cc(C)c(C(=O)c2c(OC)cnc(Br)c2Cl)c(OC)c1OC`: the melting point was in the range of 97 to 99 °C.

Regarding `CC1(CCn2nc(-c3ccncc3)oc2=O)Cn2cc([N+](=O)[O-])nc2O1` (stereo not drawn), the melting point was in the range of 147 to 149 °C.

Turning to `CCOC(=O)c1c(CN2CCOCC2)nc2ccc(Cl)cc2c1-c1ccccc1`, the melting point was in the range of 161 to 163 °C.

`Cc1noc(-c2cccc(I)c2)n1` had a melting point of 102 to 103 °C.

As to `Cc1nc(O)sc1CC(C)Cl` (stereo not drawn), the melting point was 91 to 93 °C.
